Measured values taken from US4377578A, “Piperazine derivatives” (priority 1981, dated 1983).

Tests used:
[1] = tested on: histamine-induced spasms of guinea-pig ileum strips; experiment: Anti-histamine activity in vitro (guinea-pig ileum); assay type: cell-based; conditions: Table I-b; histamine 0.5 mg/liter, 5 minutes incubation, significant inhibition (50%) of contraction
Experimental: The histamine-(0.5 mg/liter) induced spasms are recorded Kymographically with an isotonic lever giving a 5-fold magnification.

[2] = tested on: histamine paw oedema in guinea pigs; experiment: Histamine paw oedema in guinea pigs; assay type: in vivo, guinea pig; conditions: Table I-b, 2 hours before s.p. histamine 50 μg, oedema below 10 units at 10 minutes
Experimental: Guinea pigs, weighing between 400 and 500 g, are sensitized to ovalbumin by subplantar (s.p.) injection of 0.05 ml of antiserum in the left hind paw. The animals are then starved and orally treated, 24 hours after the sensitization, with saline (=control animals) or a particular dose of the compound under investigation. The histamine injection (at a dose of 50 μg) was given s.p. in the right hind paw 2 hours after the oral pretreatment with the compound.

[3] = tested on: anaphylactic shock in guinea pigs sensitized to ovalbumin; experiment: Anaphylaxis in guinea pigs: protection against death (survival) after ovalbumin challenge; assay type: in vivo, guinea pig; conditions: Table I-b; estimated ED50, oral, protection against death after i.v. 0.6 mg ovalbumin
Experimental: The anti-anaphylactic and antihistaminic effects of the subject compounds (I) and salts thereof are studied "in vivo" in guinea pigs.
Guinea pigs, weighing between 400 and 500 g, are sensitized to ovalbumin by subplantar (s.p.) injection of 0.05 ml of antiserum in the left hind paw. The animals are then starved and orally treated, 24 hours after the sensitization, with saline (=control animals) or a particular dose of the compound under investigation.
The histamine injection (at a dose of 50 μg) was given s.p. in the right hind paw 2 hours after the oral pretreatment with the compound. The diameters of both hind paws are first measured before the histamine injection is given and again 10 minutes thereafter. The animals are challenged intravenously with 0.6 mg of ovalbumin 30 minutes after the histamine injection. All control animals develop tyical primary anaphylactic shock symptoms (coughing, difficult breathing, convulsions) and 85% of these control animals die within 15 minutes after the ovalbumin injection. Protection against death is used as the criterion for possible drug effects and the estimated ED50 -value, i.e. the oral dose whereby the protection is observed in 50% of the guinea pigs, is listed in the tables below.

For “1-[3-{4-[(3-chlorophenyl)phenylmethyl]-1-piperazinyl}propyl]-1H-benzimidazole trihydrochloride.hydrate.hemi-2-propanolate [I-b: M=H, R1=H, (CH2)4, R6=3-Cl, R7=H]”, the “Histamine in "vitro" (ileum) effective conc.” value [1] was 0.01 mg/L, the “Anaphylaxis in guinea pigs oral effective dose in mg/kg: Histamine oedema” value [2] was 1.25 mg/kg and the “Anaphylaxis in guinea pigs oral effective dose in mg/kg: Survival” value [3] was 1.25 mg/kg.
